What was measured:
[1] = tested on: Il-1b mRNA; assay: Il-1b mRNA by RT-qPCR; format: cell-based
[2] = tested on: Il-6 mRNA; assay: Il-6 mRNA by RT-qPCR; format: cell-based
[3] = tested on: tumor cancer pathway gene panel; assay: Nanostring nCounter Cancer panel gene expression in tumor of DEN-injected mice; format: in vivo, mouse; conditions: 100 mg/kg, 4 weeks
Protocol: Nanostring Analysis. RNA was extracted from paired liver and tumor tissue from vehicle, Compound I-1 (100 mg/kg) and Compound I-32 (100 mg/kg) treated mice using an RNeasy kit (Qiagen, Calif., USA) as per manufacturer's protocol. All RNA samples passed the BioAnalyzer quality control test. The expression of target genes in liver and tumor were analyzed using the nCounter Fibrosis and Cancer Panel (NanoString Technologies, Inc., WA, USA), respectively according to manufacturer's protocol at the McMaster Genomics Facility. Technical and biological normalization against global geometric mean was performed in nSolver 4.0 software (NanoString Technologies). Technical normalization was performed in the nSolver software (version 4.0.70) by normalizing sample target raw counts to the geometric mean of positive control spike-ins. […] Pathway scores were calculated as the first principal component of the normalized expression values for all genes in each pathway and samples were compiled according to experimental groups to determine average pathway scores. Statistical significance was calculated between experimental groups using multiple t-tests and p-values were corrected for multiple comparisons using Benjamin-Hochberg false discovery rate. […]

[4] = tested on: bone marrow derived macrophages (BMDMs); assay: LPS-induced glycolysis in bone marrow derived macrophages (Seahorse); format: cell-based; conditions: BMDMs serum-starved 2 hours, LPS (10 ng/mL)+I-1 for 4 hours; Seahorse bioanalyzer
Protocol: Differentiated bone marrow derived macrophages were serum-starved for 2 hours then treated with vehicle (Control), LPS (10 ng/mL) or LPS+ACLYi (I-1) for 4 hours. Glycolytic rate was assessed using Seahorse bioanalyzer.

[5] = Toxicokinetics in female rat plasma (4-day oral gavage study, Day 1); format: in vivo; conditions: for dose proportionality of increases in mean Cmax and AUC0-24: 100 to 300 mg/kg/day
Protocol: Bioanalytical and Toxicokinetic Analyses. Blood samples (approximately 0.3 mL) were collected from nonfasted toxicokinetic animals via a jugular vein on Day 1 of the dosing phase, as indicated in the following table. Samples were collected predose and approximately 1, 2, 4, and 24 hours postdose.
Blood was collected into tubes containing potassium (K2) EDTA as the anticoagulant. Samples were maintained on chilled cryoracks and were centrifuged within 1 hour of collection. Plasma was harvested into two approximately equal aliquots and stored on dry ice until placed in a freezer, set to maintain −60 to −80° C., until analyzed. Plasma samples were analyzed for Compound I-1 and Compound I-32 content using a generic Tier 1 qualified liquid chromatography-tandem mass spectrometry (LC-MS/MS) method.
In-Life Phase. Animals were dosed once daily for up to 4 days via oral gavage at a volume of 10 mL/kg. Animals in Group 2 and 3 were administered Compound I-1. Animals in Group 4 and 5 were administered Compound I-32. The control article for Group 1 was 1.5% (w/v) carboxymethyl cellulose+0.2% (v/v) Tween 20 in deionized (DI) water. The vehicle used to prepare Compound I-1 and Compound I-32 formulations was 3% (w/v) carboxymethyl cellulose+0.4% (v/v) Tween 20 in DI water.

[6] = tested on: bone marrow derived macrophages (BMDMs); assay: LPS-induced glycolysis and inflammation in bone marrow derived macrophages; format: cell-based, mouse; conditions: 50 μM compound, 4 hours
Protocol: Macrophage were isolated as follows: femurs and tibia were collected from mice, cleaned of any soft tissues and the ends were cut off from each bone. The tibia and femur were then transferred into 1.5 mL Eppendorf tubes and the marrow was extracted via centrifugation (1900 g×5 min), resuspended in DMEM and strained through a 40 μm strainer into a 50 ml falcon tube. The strainer was rinsed with an additional 40 mL of DMEM, the cell suspension was transferred to a T175 flask, an additional 60 mL of DMEM was added and the cells were cultured at 37° C. for 4 hours. Differentiation was initiated by adding 20 mL of L929 fibroblast conditioned media and 12 mL was plated on 100 mm dishes. The cells were then left for 7 days to differentiate into macrophages. The media was then aspirated, cells were scraped in 3 mL of DMEM, then pooled and diluted at a ratio of 1:2 with DMEM. The cell suspension was plated in 12-well plates and cells were allowed to adhere overnight. […] Changes in gene expression were calculated using 2-delta cT method. Macrophage glycolytic rates were assessed using a Seahorse Bioanalyzer (XFe96, Agilent Scientific Instruments). […] The following day cells were serum-starved for 2 hours then treated with LPS (100 ng/mL) and Compound I-1 (50 μM) and glycolytic rate was analyzed (Agilent Seahorse XFp Cell Energy Phenotype Test Kit, Cat #103275-100).

[7] = female rat plasma, 100 mg/kg/day oral gavage, Day 1

Row | Structure (SMILES) | marker of inflammation, Il-1b mRNA [1] | marker of inflammation, Il-6 mRNA [2] | effects on tumor gene expression pathways related to cancer progression and survival [3] | LPS-induced glycolysis (glycolytic rate) [4] | AUC0-24 [5, 7] | Tmax [5, 7] | Tmax ([5]; female rat plasma, 300 mg/kg/day oral gavage, Day 1) | dose proportionality of increases in mean Cmax and AUC0-24 ([5]; female rat) | LPS-induced glycolysis (Seahorse) and inflammation (Il-6, Il-1b mRNA) [6] | Cmax ([5]; Wistar Han, plasma, oral, female rat, 300 mg/kg/day, Day 1, read-out: mean maximum observed concentration (Cmax))
1 | CC(C)(CCCCc1ccc(CCCCC(C)(C)C(=O)O)cc1)C(=O)O [Compound I-1, 6-[4-(5-carboxy-5-methylhexyl)-phenyl]-2,2-dimethylhexanoic acid] | suppression | suppression | exerted pronounced effects on gene expression pathways related to cancer progression and survival | suppression | 5,460,000 h*ng/mL | 2.00 h | 1.00 h | less than dose proportional | suppression of LPS-induced glycolysis and inflammation | 
2 | CC(C)(CCCCc1cccc(CCCCC(C)(C)C(=O)O)c1)C(=O)O [Compound I-32, 6-[3-(5-carboxy-5-methylhexyl)-phenyl]-2,2-dimethylhexanoic acid] |  |  |  |  |  |  |  | approximately dose proportional |  | 406 µg/mL

— patent US11730712B2, “Functionalized long-chain hydrocarbon mono- and di-carboxylic acids and derivatives thereof, and their use for the prevention or treatment of disease” (ESPERVITA THERAPEUTICS, INC., priority 2021, dated 2023)
